Measured values published in PMC3781034, “A Small-Animal Pharmacokinetic/Pharmacodynamic PET Study of Central Serotonin 1A Receptor Occupancy by a Potential Therapeutic Agent for Overactive Bladder” (PLoS ONE, 2013).
Values belong to the compound of their own block, whether it stands above or below them.

Tests used:
[1] = tested on: micturition interval; assay: 5-HT1A receptor agonist (8-OH-DPAT)-induced model of OAB, cystometry; type: in vivo, female SD rats; conditions: intravenous infusion 0.06 mg/kg/h, female SD rats
Procedure: Catheter implantations and cystometric investigations were performed based on the reported method [14]. Briefly, on the day before the cystometric experiment, female SD rats were initially anesthetized with pentobarbital (50 mg/kg ip). Catheters were inserted into the femoral vein, the dome of the stomach and the dome of the bladder. In the cystometric study, the bladder catheter was connected to an infusion pump and a pressure transducer (DX-312; Nihon Kohden Co., Tokyo, Japan) by three-way stopcock. Saline was infused into the bladder and femoral vein. After bladder pressure was stabilized, 8-OH-DPAT (0.06 mg/kg/h) was infused into the femoral vein instead of saline. Bladder pressure was monitored with a pressure transducer and a pressure amplifier (AP-601G; Nihon Kohden), and recorded on a pen recorder (WT-645G; Nihon Kohden). The following three micturition intervals (i.e., intervals between consecutive peaks of bladder pressure induced at the time of bladder content evacuation) were obtained: (1) basal micturition interval (intervals before 8-OH-DPAT administration), (2) pre-administration micturition interval, (intervals immediately before administration of E2110 or vehicle), and (3) post-administration micturition interval (intervals observed between 1 and 2 hr after administration of E2110 or vehicle). […] E2110 (0.03, 0.1 or 0.3 mg/kg) or vehicle was administered to four groups of eight conscious rats orally.
Data are expressed as mean ± standard error of mean (S.E.M). In the pharmacological study, the statistical significance of differences between the vehicle- and E2110-treated groups was tested using one-way analysis of variance (ANOVA) followed by Dunnett’s multiple comparison test. A probability (p) value of <0.05 (two-sided) was considered statistically significant. All statistical analyses were performed using the SAS software package version 8.1 or 8.2 (SAS Institute Japan Ltd., Tokyo, Japan).

[2] = target: T1, rat 5-HT1A receptor (Rattus norvegicus, UniProt P19327); assay: Binding assay in rat hippocampal membrane fraction ([3H]MPPF); conditions: saturation binding, rat hippocampal membranes, Scatchard plot
T1 construct: from tissue; host or cells: rat hippocampus, membrane (microsomal) fraction
T1 sequence (P19327 1-422): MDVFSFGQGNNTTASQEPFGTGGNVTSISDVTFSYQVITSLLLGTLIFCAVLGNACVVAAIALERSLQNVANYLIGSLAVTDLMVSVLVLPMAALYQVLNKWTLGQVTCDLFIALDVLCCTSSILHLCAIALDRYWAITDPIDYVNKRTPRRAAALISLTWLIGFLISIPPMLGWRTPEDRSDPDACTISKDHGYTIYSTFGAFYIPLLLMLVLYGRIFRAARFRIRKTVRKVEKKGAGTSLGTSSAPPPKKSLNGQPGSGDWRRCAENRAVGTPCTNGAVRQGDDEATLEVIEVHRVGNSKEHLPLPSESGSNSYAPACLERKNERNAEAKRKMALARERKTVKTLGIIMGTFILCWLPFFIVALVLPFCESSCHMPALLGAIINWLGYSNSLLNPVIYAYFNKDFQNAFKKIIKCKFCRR
Procedure: Rat hippocampal samples were weighed, homogenized in 10-fold volume of 50 mM Tris-HCl (pH 7.4) on an ice bath, and centrifuged (50,000×g, 4°C, 20 min). The precipitate was further homogenized in a 10-fold volume of 50 mM Tris-HCl (pH 7.4) on an ice bath and centrifuged (50,000×g, 4°C, 20 min). The obtained precipitate was homogenized in 50 mM Tris-HCl (pH 7.4) to render a concentration of 100 mg tissue eq./mL. The obtained microsomal fraction was stored as a receptor stock solution at -80°C until use. […] MPPF in a total 1-ml reaction volume at 25°C for 60 min. The reaction was terminated, and bound radioactivity was separated from free radioligands by filtering and washing three times with 3 ml of 50 mM Tris-HCl (pH 7.4). The radioactivity content of the filters in 5 ml of liquid scintillator (Atomlight; PerkinElmer) was counted by TR2500 scintillation counter (PerkinElmer Life & Analytical Sciences). The specific binding was determined as the difference between total and nonspecific binding, measured in the absence and presence of 100 µM 5-HT. Data were analyzed by Scatchard plot to estimate equilibrium constant (Kd) values. For the competition experiments, binding assays were carried out using 0.3 nM [^3H] […] MPPF according to the following equation:
Ki=IC50/1+[radioligand]/Kd (1)
where [radioligand] means the concentration of the radioligand used.

[3] = tested on: 5-HT1A; conditions: hippocampus, PET, isoflurane-anesthetized rats; cited from earlier work
[4] = tested on: 5-HT1A; conditions: hippocampal, unanesthetized rats; cited from earlier work

Structure (SMILES): CCCN(CCC)C1CCc2cccc(O)c2C1 (stereo not shown) [8-OH-DPAT, 8-hydroxy-2-(di-n-propylamino)-tetralin, reference compound]
- micturition interval versus basal level [1]: markedly decreased

- Kd [2]: 0.92 nM
Structure (SMILES): COc1ccccc1N1CCN(CCN(C(=O)c2ccc(F)cc2)c2ccccn2)CC1 [[^3H] MPPF, [^3H] 2'-methoxyphenyl-(N-2'-pyridinyl)-p-fluoro-benzamidoethyipiperazine, reference compound]

Structure (SMILES): CC(C)NCC(O)COc1cccc2[nH]ccc12 (stereo not shown) [pindolol]
- in vivo ED50 for 5-HT1A RO [3]: 5.6 mg/kg
- ED50 for 5-HT1A RO, ex vivo autoradiography [4]: 8.5 mg/kg
